# Assay results taken from patent US20190314382A1, “COMPOUNDS AND PHARMACEUTICAL COMPOSITIONS THEREOF FOR THE TREATMENT OF INFLAMMATORY DISEASES” (Galapagos NV, priority 2016, published 2019).
# Legend:
# IL-2 = assay: Biomarker study in RA subjects: serum IL-2, Luminex 18-Plex; type: in vivo, human; details: observed case
# Experimental: (§1) Double-blind, placebo-controlled add on study in subjects with moderately to severely active RA who have an inadequate response to MTX (oral or parenteral).
# (§2) 595 subjects randomized to one of 6 dose regimens of Compound 1 (dosed as a [Compound 1:HCl:3H2O]) (3 dose levels administered either once or twice daily) or placebo on top of each subject's stable dose of MTX.
# (§3) Compound 1 (dosed as a [Compound 1:HCl:3H2O]) is dosed for twelve weeks once daily (q.d.) (50 mg, 100 mg or 200 mg) or twice daily (b.i.d.) (25 mg, 50 mg or 100 mg); or placebo.
# (§4) 18 parameters from human serum samples (GM-CSF, IFNγ, IL-1β, IL-2, IL-4, IL-5, IL-6, IL-7, IL-8, IL-10, IL-12 (p70), IL-13, IL-17A, IL-21, IL-23, MIP-1α, MIP-1β and TNF-α) are analyzed on a Luminex Plateform (BioPlex® L200) using a Luminex 18-Plex Kit (Millipore: HSTCMAG-28SK).
# (§5) Coupled beads react with the sample containing the biomarker of interest. […] Phycoerythrin (PE) serves as a fluorescent indicator.
# (§6) The concentration of bead bound analyte is proportional to the MFI (Median Fluorescent Intensity) and back-calculated from interpolation with the calibration curve fitted with a 4 or 5 parameters logistic (4PL or 5PL) regression model selected during method pre-validation.
# (§7) Treatment effect was assessed using an ANCOVA model on the changes from baseline, with factors: treatment, baseline value of the PD marker, geographical region and previous use of biologics.
# IL-8 = assay: Biomarker study in RA subjects: serum IL-8, Luminex 18-Plex; type: in vivo, human; details: observed case
# Experimental: as §1, §2, §3, §4, §5, §6, §7
# IL-4 = assay: Biomarker study in RA subjects: serum IL-4, Luminex 18-Plex; type: in vivo, human; details: observed case
# Experimental: as §1, §2, §3, §4, §5, §6, §7
# GM-CSF = assay: Biomarker study in RA subjects: serum GM-CSF, Luminex 18-Plex; type: in vivo, human; details: observed case
# Experimental: as §1, §2, §3, §4, §5, §6, §7
# IL-5 = assay: Biomarker study in RA subjects: serum IL-5, Luminex 18-Plex; type: in vivo, human; details: observed case
# Experimental: as §1, §2, §3, §4, §5, §6, §7
# IL-10 = assay: Biomarker study in RA subjects: serum IL-10, Luminex 18-Plex; type: in vivo, human; details: observed case
# Experimental: as §1, §2, §3, §4, §5, §6, §7
# [1] = cited from earlier work
# IL-17A = assay: Biomarker study in RA subjects: serum IL-17A, Luminex 18-Plex; type: in vivo, human; details: observed case
# Experimental: as §1, §2, §3, §4, §5, §6, §7
# IFNγ = assay: Biomarker study in RA subjects: serum IFNγ, Luminex 18-Plex; type: in vivo, human; details: observed case
# Experimental: as §1, §2, §3, §4, §5, §6, §7
# IL-13 = assay: Biomarker study in RA subjects: serum IL-13, Luminex 18-Plex; type: in vivo, human; details: observed case
# Experimental: as §1, §2, §3, §4, §5, §6, §7
# IL-23 = assay: Biomarker study in RA subjects: serum IL-23, Luminex 18-Plex; type: in vivo, human; details: observed case
# Experimental: as §1, §2, §3, §4, §5, §6, §7
# IL-21 = assay: Biomarker study in RA subjects: serum IL-21, Luminex 18-Plex; type: in vivo, human; details: observed case
# Experimental: as §1, §2, §3, §4, §5, §6, §7
# IL-7 = assay: Biomarker study in RA subjects: serum IL-7, Luminex 18-Plex; type: in vivo, human; details: observed case
# Experimental: as §1, §2, §3, §4, §5, §6, §7
# IL-6 = assay: Biomarker study in RA subjects: serum IL-6, Luminex 18-Plex; type: in vivo, human; details: observed case
# Experimental: as §1, §2, §3, §4, §5, §6, §7
# [2] = 50 mg bid, Week 4, N = 73, RA subjects on MTX
# [3] = 50 mg bid, Week 12, N = 73, RA subjects on MTX
# [4] = 100 mg bid, Week 4, N = 79, RA subjects on MTX
# [5] = 100 mg bid, Week 12, N = 79, RA subjects on MTX
# [6] = 100 mg qd, Week 4, N = 68, RA subjects on MTX
# [7] = 100 mg qd, Week 12, N = 68, RA subjects on MTX
# [8] = 200 mg qd, Week 4, N = 75, RA subjects on MTX
# [9] = 200 mg qd, Week 12, N = 75, RA subjects on MTX
smiles,measurement,setting,value
"O=C(Nc1nc2cccc(-c3ccc(CN4CCS(=O)(=O)CC4)cc3)n2n1)C1CC1 [Compound 1, cyclopropanecarboxylic acid {5-[4-(1,1-dioxo-thiomorpholin-4-ylmethyl)-phenyl]-[1,2,4]triazolo[1,5-a]pyridin-2yl}-amide]",IL-2 Mean change from baseline at Week 4,IL-2; [2],-0.2 pg/mL
same,IL-2 Mean change from baseline at Week 12,IL-2; [3],-1.9 pg/mL
same,IL-2 Mean change from baseline at Week 4,IL-2; [4],-2.3 pg/mL
same,IL-2 Mean change from baseline at Week 12,IL-2; [5],-4.1 pg/mL
same,IL-2 Mean change from baseline at Week 4,IL-2; [6],-1.9 pg/mL
same,IL-2 Mean change from baseline at Week 12,IL-2; [7],-3.5 pg/mL
same,IL-2 Mean change from baseline at Week 4,IL-2; [8],-2.0 pg/mL
same,IL-2 Mean change from baseline at Week 12,IL-2; [9],-3.3 pg/mL
same,IL-8 Mean change from baseline at Week 4,IL-8; [2],2.3 pg/mL
same,IL-8 Mean change from baseline at Week 12,IL-8; [3],6.9 pg/mL
same,IL-8 Mean change from baseline at Week 4,IL-8; [4],-1.8 pg/mL
same,IL-8 Mean change from baseline at Week 12,IL-8; [5],2.4 pg/mL
same,IL-8 Mean change from baseline at Week 4,IL-8; [6],4.1 pg/mL
same,IL-8 Mean change from baseline at Week 12,IL-8; [7],0.7 pg/mL
same,IL-8 Mean change from baseline at Week 4,IL-8; [8],-2.0 pg/mL
same,IL-8 Mean change from baseline at Week 12,IL-8; [9],-1.6 pg/mL
same,IL-4 Mean change from baseline at Week 4,IL-4; [2],-0.3 pg/mL
same,IL-4 Mean change from baseline at Week 12,IL-4; [3],-2.1 pg/mL
same,IL-4 Mean change from baseline at Week 4,IL-4; [4],-2.7 pg/mL
same,IL-4 Mean change from baseline at Week 12,IL-4; [5],-2.7 pg/mL
same,IL-4 Mean change from baseline at Week 4,IL-4; [6],0.8 pg/mL
same,IL-4 Mean change from baseline at Week 12,IL-4; [7],-1.6 pg/mL
same,IL-4 Mean change from baseline at Week 4,IL-4; [8],0.2 pg/mL
same,IL-4 Mean change from baseline at Week 12,IL-4; [9],-2.5 pg/mL
same,GM-CSF Mean change from baseline at Week 4,GM-CSF; [2],-5.4 pg/mL
same,GM-CSF Mean change from baseline at Week 12,GM-CSF; [3],-14.4 pg/mL
same,GM-CSF Mean change from baseline at Week 4,GM-CSF; [4],-12.4 pg/mL
same,GM-CSF Mean change from baseline at Week 12,GM-CSF; [5],-21.1 pg/mL
same,GM-CSF Mean change from baseline at Week 4,GM-CSF; [6],-9.3 pg/mL
same,GM-CSF Mean change from baseline at Week 12,GM-CSF; [7],-19.5 pg/mL
same,GM-CSF Mean change from baseline at Week 4,GM-CSF; [8],-8.4 pg/mL
same,GM-CSF Mean change from baseline at Week 12,GM-CSF; [9],-15.0 pg/mL
same,IL-5 Mean change from baseline at Week 4,IL-5; [2],-18.2 pg/mL
same,IL-5 Mean change from baseline at Week 12,IL-5; [3],-18.1 pg/mL
same,IL-5 Mean change from baseline at Week 4,IL-5; [4],-0.8 pg/mL
same,IL-5 Mean change from baseline at Week 12,IL-5; [5],-1.5 pg/mL
same,IL-5 Mean change from baseline at Week 4,IL-5; [6],-0.2 pg/mL
same,IL-5 Mean change from baseline at Week 12,IL-5; [7],-0.7 pg/mL
same,IL-5 Mean change from baseline at Week 4,IL-5; [8],0.1 pg/mL
same,IL-5 Mean change from baseline at Week 12,IL-5; [9],0.0 pg/mL
same,IL-10 Mean change from baseline at Week 4,IL-10; [2],-2.1 pg/mL
same,IL-10 Mean change from baseline at Week 12,IL-10; [3],-3.7 pg/mL
same,IL-10 Mean change from baseline at Week 4,IL-10; [4],-3.3 pg/mL
same,IL-10 Mean change from baseline at Week 12,IL-10; [5],-4.2 pg/mL
same,IL-10 Mean change from baseline at Week 4,IL-10; [6],0.1 pg/mL
same,IL-10 Mean change from baseline at Week 12,IL-10; [7],-0.1 pg/mL
same,IL-10 Mean change from baseline at Week 4,IL-10; [8],-0.5 pg/mL
same,IL-10 Mean change from baseline at Week 12,IL-10; [9],-1.5 pg/mL
same,safety profile,"[1]; in particular regarding anemia, lymphocytes, neutrophils, hemoglobin",remarkable safety profile
same,efficacy in phase II,"[1]; rheumatoid arthritis, inflammatory bowel diseases, in particular Crohn's disease",remarkable efficacy
same,IL-17α Mean change from baseline at Week 4,IL-17A; [2],-4.4 pg/mL
same,IL-17α Mean change from baseline at Week 12,IL-17A; [3],-3.3 pg/mL
same,IL-17α Mean change from baseline at Week 4,IL-17A; [4],3.9 pg/mL
same,IL-17α Mean change from baseline at Week 12,IL-17A; [5],-1.9 pg/mL
same,IL-17α Mean change from baseline at Week 4,IL-17A; [6],-5.9 pg/mL
same,IL-17α Mean change from baseline at Week 12,IL-17A; [7],-7.4 pg/mL
same,IL-17α Mean change from baseline at Week 4,IL-17A; [8],-1.6 pg/mL
same,IL-17α Mean change from baseline at Week 12,IL-17A; [9],-0.9 pg/mL
same,IFNγ Mean change from baseline at Week 4,IFNγ; [2],1.6 pg/mL
same,IFNγ Mean change from baseline at Week 12,IFNγ; [3],-3.4 pg/mL
same,IFNγ Mean change from baseline at Week 4,IFNγ; [4],-3.3 pg/mL
same,IFNγ Mean change from baseline at Week 12,IFNγ; [5],-5.8 pg/mL
same,IFNγ Mean change from baseline at Week 4,IFNγ; [6],-3.8 pg/mL
same,IFNγ Mean change from baseline at Week 12,IFNγ; [7],-6.6 pg/mL
same,IFNγ Mean change from baseline at Week 4,IFNγ; [8],0.5 pg/mL
same,IFNγ Mean change from baseline at Week 12,IFNγ; [9],-3.1 pg/mL
same,IL-13 Mean change from baseline at Week 4,IL-13; [2],-0.6 pg/mL
same,IL-13 Mean change from baseline at Week 12,IL-13; [3],-1.1 pg/mL
same,IL-13 Mean change from baseline at Week 4,IL-13; [4],-1.5 pg/mL
same,IL-13 Mean change from baseline at Week 12,IL-13; [5],-2.9 pg/mL
same,IL-13 Mean change from baseline at Week 4,IL-13; [6],-0.6 pg/mL
same,IL-13 Mean change from baseline at Week 12,IL-13; [7],-1.5 pg/mL
same,IL-13 Mean change from baseline at Week 4,IL-13; [8],-0.9 pg/mL
same,IL-13 Mean change from baseline at Week 12,IL-13; [9],-2.2 pg/mL
same,IL-23 Mean change from baseline at Week 4,IL-23; [2],-772.1 pg/mL
same,IL-23 Mean change from baseline at Week 12,IL-23; [3],-888.7 pg/mL
same,IL-23 Mean change from baseline at Week 4,IL-23; [4],-273.6 pg/mL
same,IL-23 Mean change from baseline at Week 12,IL-23; [5],-831.6 pg/mL
same,IL-23 Mean change from baseline at Week 4,IL-23; [6],38.3 pg/mL
same,IL-23 Mean change from baseline at Week 12,IL-23; [7],-337.9 pg/mL
same,IL-23 Mean change from baseline at Week 4,IL-23; [8],-435.8 pg/mL
same,IL-23 Mean change from baseline at Week 12,IL-23; [9],-949.7 pg/mL
same,IL-21 Mean change from baseline at Week 4,IL-21; [2],-0.1 pg/mL
same,IL-21 Mean change from baseline at Week 12,IL-21; [3],-1.6 pg/mL
same,IL-21 Mean change from baseline at Week 4,IL-21; [4],-1.6 pg/mL
same,IL-21 Mean change from baseline at Week 12,IL-21; [5],-2.8 pg/mL
same,IL-21 Mean change from baseline at Week 4,IL-21; [6],-0.3 pg/mL
same,IL-21 Mean change from baseline at Week 12,IL-21; [7],0.5 pg/mL
same,IL-21 Mean change from baseline at Week 4,IL-21; [8],-1.4 pg/mL
same,IL-21 Mean change from baseline at Week 12,IL-21; [9],-2.3 pg/mL
same,IL-7 Mean change from baseline at Week 4,IL-7; [2],-1.8 pg/mL
same,IL-7 Mean change from baseline at Week 12,IL-7; [3],-2.6 pg/mL
same,IL-7 Mean change from baseline at Week 4,IL-7; [4],-2.7 pg/mL
same,IL-7 Mean change from baseline at Week 12,IL-7; [5],-3.0 pg/mL
same,IL-7 Mean change from baseline at Week 4,IL-7; [6],-0.4 pg/mL
same,IL-7 Mean change from baseline at Week 12,IL-7; [7],-1.2 pg/mL
same,IL-7 Mean change from baseline at Week 4,IL-7; [8],-2.5 pg/mL
same,IL-7 Mean change from baseline at Week 12,IL-7; [9],-3.3 pg/mL
same,IL-6 Mean change from baseline at Week 4,IL-6; [2],-4.2 pg/mL
same,IL-6 Mean change from baseline at Week 12,IL-6; [3],-6.0 pg/mL
same,IL-6 Mean change from baseline at Week 4,IL-6; [4],-11.0 pg/mL
same,IL-6 Mean change from baseline at Week 12,IL-6; [5],-14.1 pg/mL
same,IL-6 Mean change from baseline at Week 4,IL-6; [6],-7.0 pg/mL
same,IL-6 Mean change from baseline at Week 12,IL-6; [7],-8.0 pg/mL
same,IL-6 Mean change from baseline at Week 4,IL-6; [8],-9.6 pg/mL
same,IL-6 Mean change from baseline at Week 12,IL-6; [9],-11.2 pg/mL
